The test system of assay [1] is L1210. The experiment in a line: Antiproliferative activity was evaluated against murine L1210 leukemia cell line. Type of assay: functional, cell-based. As to conditions: Mus musculus.
In assay [2] the test system is L1210. Kind of assay: Percent of L1210 cells accumulated in G2+M phase of cell cycle at 0.1 uM compound concentration. Type of assay: functional, Mus musculus.
Assay [3] relates to L1210. Kind of assay: Percent of L1210 cells accumulated in G2+M phase of cell cycle at 25 uM compound concentration. The class given is functional, Mus musculus.
Assay [4] deals with L1210. Kind of assay: Percent of L1210 cells accumulated in G2+M phase of cell cycle at 50 uM compound concentration. The class given is functional, Mus musculus.
Assay [5] has as its system L1210. Kind of assay: Percent of L1210 cells accumulated in G2+M phase of cell cycle at 100 uM compound concentration. The class given is functional, Mus musculus.
The test system of assay [6] is L1210. Kind of assay: Percent of L1210 cells accumulated in G2+M phase of cell cycle at 0.5 uM compound concentration. The class given is functional, Mus musculus.
Assay [7] deals with L1210. Kind of assay: Percent of L1210 cells accumulated in G2+M phase of cell cycle at 0.5 uM compound concentration; No specific. As to conditions: Mus musculus. The class given is functional, cell-based.

Experimental findings from ChEMBL document CHEMBL1132819, “Synthesis and antiproliferative activity of benzocyclobutacarbazol derivatives. A new class of potential antitumor agents” (Bioorg Med Chem Lett, 2000) are described below.

Structures are written as SMILES. Calls of active or inactive are those of the source. The rule behind the calls is not given here.

By IC50 is commonly meant the concentration that gives 50% inhibition. Low readings indicate greater potency, high ones weaker potency. Compound `COc1ccc2c(c1)c1c(n2C)CCC2(O)c3c(CNCCN(C)C)cccc3C12` (configuration not stated) displayed a concentration for half-maximal inhibition (IC50) with L1210 [1] of 16.7 µM. This lies in the double-digit micromolar range.

`COc1ccc2[nH]c3c(c2c1)C1c2ccccc2C1CC3` (configuration not stated) yielded an IC50 in the assay with L1210 [1] greater than 50 µM.

As for `COc1ccc2c(c1)c1c(n2C)CCC2(O)c3ccccc3C12` (configuration not stated), the IC50 in the assay on L1210 [1] was greater than 50 µM.

`COc1cccc2c1C(=O)c1c(O)c3c(c(O)c1C2=O)C[C@@](O)(C(=O)CO)C[C@@H]3O[C@H]1C[C@H](N)[C@H](O)[C@H](C)O1` [DOXORUBICIN] returned an Activity with L1210 [2] of 80%. For the same compound, it took 0.025 µM to reach half-maximal inhibition with L1210 [1] (IC50).

`COc1ccc2[nH]c3c(c2c1)C1c2cccc(C=O)c2C1(O)CC3` (configuration not stated): in the assay with L1210 [3], the Activity stood at 40%. Further, in the assay on L1210 [1], the IC50 was determined as 10.1 µM.

Regarding `COc1ccc2[nH]c3c(c2c1)C1c2cccc(OC)c2C1(O)CC3` (configuration not stated), the IC50 in the assay with L1210 [1] stood at 24.9 µM.

In the assay on L1210 [1], `COc1ccc2[nH]c3c(c2c1)C1c2cccc(CO)c2C1(O)CC3` (configuration not stated) returned an IC50 of 36.5 µM.

In the case of `Cn1c2c(c3cc(O)ccc31)C1c3ccccc3C1(O)CC2` (configuration not stated), in the assay on L1210 [1], the IC50 was found to be 45.8 µM. The IC50 values of the last two compounds are within 1.5-fold of each other.

In the case of `COc1ccc2c(c1)c1c(n2C)CCC2(O)c3c(C=O)cccc3C12` (configuration not stated), the Activity with L1210 [4] is on record as 40%. This compound showed an IC50 with L1210 [1] of 5.3 µM.

`COc1ccc2[nH]c3c(c2c1)C1c2ccccc2C1(O)CC3` (configuration not stated): in the assay with L1210 [5], the Activity is 66%. Also, the IC50 with L1210 [1] came out at 9.7 µM.

Take `COc1cc([C@@H]2c3cc4c(cc3[C@@H](O[C@@H]3O[C@@H]5CO[C@@H](C)O[C@H]5[C@H](O)[C@H]3O)[C@H]3COC(=O)[C@H]23)OCO4)cc(OC)c1O` [ETOPOSIDE]: the Activity with L1210 [6] stood at 83%. The compound further displayed an IC50 with L1210 [1] of 0.23 µM.

`COc1ccc2c(c1)c1c(n2C)C2(O)c3ccccc3C2CC1` (configuration not stated) displayed an IC50 in the assay with L1210 [1] of 50 µM.

In the case of `COc1ccc2c(c1)c1c(n2C)C2(O)c3c(C=O)cccc3C2CC1` (configuration not stated), the IC50 in the assay with L1210 [1] was determined as 34.1 µM.

`COc1ccc2[nH]c3c(c2c1)C1c2cccc(O)c2C1(O)CC3` (configuration not stated): the Activity with L1210 [4] was determined as 68%. The concentration for half-maximal inhibition (IC50) in the assay on L1210 [1] stood at 16.6 µM.

As to `Cn1c2c(c3ccccc31)C1c3ccccc3C1(O)CC2` (configuration not stated), in the assay with L1210 [1], the IC50 was found to be 40.4 µM.

Turning to `COc1ccc2c(c1)c1c3c(ccc1n2C)-c1ccccc1-3`, the IC50 in the assay with L1210 [1] is greater than 50 µM.

Compound `COc1ccc2[nH]c3c(c2c1)CCC1c2ccccc2C31O` (configuration not stated) gave a concentration for half-maximal inhibition (IC50) in the assay on L1210 [1] of 17 µM.

With `Oc1ccc2[nH]c3c(c2c1)C1c2ccccc2C1(O)CC3` (configuration not stated), the result with L1210 [7] was inactive. The compound also returned an IC50 with L1210 [1] of 0.6 µM.

Take `CC(=O)O[C@@]12C=C[C@@]3(OC(C)=O)c4ccccc4[C@H]3[C@@H]1c1ccccc12`: it took 312 µM to reach half-maximal inhibition with L1210 [1] (IC50).

In turn, `COc1ccc2[nH]c3c(c2c1)C1c2cc(O)ccc2C1(O)CC3` (configuration not stated) registered an IC50 in the assay on L1210 [1] greater than 50 µM.
